# Experimental data reported in US20260315474A1 (BRISTOL-MYERS SQUIBB COMPANY, priority 2023, published 2026).
# Assays:
# [1] = Thorough QT study (QT/QTc interval, ECG); assay type: in vivo, human; settings: for highest upper limit of 2-sided 90% CI for ΔΔQTcF: Day 1 and Day 4 postdose
# [2] = system: Factor Xa; settings: cited from earlier work
# [3] = cited from earlier work; for chronic clopidogrel vs aspirin monotherapy: atherosclerosis, including MI within 35 days
# [4] = system: Factor XI; assay: Factor XI clotting activity, AXIOMATIC-SSP; assay type: in vivo, human
# Method: As used herein, “Factor XI Clotting Activity” is determined utilizing an aPTT-based 1-stage clotting time assay. Serial dilutions of normal pooled plasma are mixed with FXI-depleted plasma and the clotting times are measured according to standard aPTT protocol, to establish a reference range. Subject test plasma is treated in the same way and compared with the reference plasma.
# In some embodiments, the Factor XI Clotting Activity is measured as follows: Factor XI (FXI) activity is measured using a modification of the activated partial thromboplastin time (aPTT) using Actin FS (Siemens Healthcare) on the Siemens BCS®XP analyzer. […]. The reference standard, at approximately 100%, is diluted by the BCS®XP analyzer in saline to generate pre-selected calibration levels of FXI. The calibration curve is plotted with FXI activity in percent (%) on the x-axis and clotting time in seconds on the y-axis. A log/lin regression curve fit is used. The samples to be tested are mixed with FXI deficient plasma (containing less than 1% FXI and at least 75% of all the other factors) to normalize all other factors. APTT reagent (Actin FS) is added and the mixture is incubated. Following incubation, calcium chloride is added to the mixture and the time to clot formation (measured optically) is compared to the time on the calibration curve. Samples are tested at the base dilution (1:10) prepared by the BCS®XP in saline. In other embodiments, formation of the fibrin clot is measured by mechanical methods (viscosity).
# […]. […] […].
# [5] = AXIOMATIC-SSP treatment discontinuation / completion; settings: 200 mg BID, primarily due to AEs
# Source text: The study enrolled participants ≥40 years of age who had ischemic stroke or TIA. Ischemic stroke was defined as a neurological deficit attributable to a non-lacunar, acute brain infarction detected by neuroimaging and relevant to the clinical symptoms and National Institutes of Health Stroke Score (NIHSS)≤7 at the time of randomization. TIA was defined as acute onset neurological deficit attributable to focal ischemia of the brain by history or examination, with complete resolution of the deficit and no brain infarction on neuroimaging and ABCD score ≥6 or presence of motor symptoms. Evidence of relevant intracranial or cervical arterial atherosclerotic plaque, ulceration or thrombus in a feeding artery documented by imaging was required regardless of whether the index event was ischemic stroke or TIA, and all participants were required to have a Modified Rankin Score ≤3 before the index event. […] Following informed consent, participants received ASA 100 mg QD and a single loading dose of clopidogrel 300 mg if not already given as standard of care. […] A second MRI was performed on Day 90±6 days. All participants were required to remain on study treatment until the Day 90 MRI was performed up to Day 96.
# [6] = Population pharmacokinetic analysis of AXIOMATIC-SSP PK data; assay type: in vivo, human; settings: 25 mg BID oral
# [7] = AXIOMATIC-TKR Phase II trial; assay type: in vivo, human; settings: 25 mg twice daily
# Source text: […]. […] (Weitz, et al., Milvexian for the Prevention of Venous Thromboembolism, N. Engl. […].
# [8] = Safety and tolerability of milvexian (thorough QT study / general); assay type: in vivo, human
# Source text: All 66 (100.0%) participants enrolled in the study received at least one entire dose of study intervention.
# [9] = phase III, ACS patients, in combination with dual antiplatelet therapy
# [10] = 25 mg BID, Day 21 anytime, N=233
# [11] = 25 mg BID, Day 90 anytime, N=223
# [12] = dose of 25 mg, 50 mg, or 100 mg
structure (smiles),measurement,setting,value
"COc1c(N2C[C@@H]3CCCN[C@@H]3C2)c(F)cc2c(=O)c(C(=O)O)cn(C3CC3)c12 [moxifloxacin, reference compound]","participants with treatment-emergent change from baseline of QTcB>60 ms, number",[1]; following moxifloxacin,One
same,"participants with treatment-emergent change from baseline of QTcB>60 ms, percent",[1]; following moxifloxacin,1.7%
same,"assay sensitivity (QTc, positive control)",[1]; single dose 400 mg moxifloxacin,Assay sensitivity for moxifloxacin was also demonstrated
O=C(NC[C@H]1CN(c2ccc(N3CCOCC3=O)cc2)C(=O)O1)c1ccc(Cl)s1 [rivaroxaban],"risk of death from cardiovascular causes, myocardial infarction, and stroke",[2]; [9],"reduced the risk of death from cardiovascular causes, myocardial infarction, and stroke"
same,risk of major bleeding,[2]; [9],increased the risk of major bleeding
same,bleeding risks,[2]; post-ACS care,increased bleeding risks
same,cardiovascular events,[2]; post-ACS care,reduced cardiovascular events
same,thrombin generation,[2]; post-ACS care,decreased thrombin generation
COC(=O)[C@H](c1ccccc1Cl)N1CCc2sccc2C1 [clopidogrel],chronic clopidogrel vs aspirin monotherapy,[3],comparable results
"C[C@@H]1CCC[C@H](n2cnc(-c3cc(Cl)ccc3-n3cc(Cl)nn3)cc2=O)c2cc(ccn2)-c2c(cnn2C(F)F)NC1=O [milvexian, (5R,9S)-9-(4-(5-chloro-2-(4-chloro-1H-1,2,3-triazol-1-yl)phenyl)-6-oxopyrimidin-1(6H)-yl)-2^1-(difluoromethyl)-5-methyl-2^1H-3-aza-1(4,2)-pyridina-2(5,4)-pyrazolacyclonaphan-4-one]","FXI Clotting Activity percent change from baseline, mean","[4]; 25 mg BID, Day 1 4 h, N=254",−7.21%
same,"FXI Clotting Activity percent change from baseline, median","[4]; 25 mg BID, Day 1 4 h, N=254",−8.48%
same,"FXI Clotting Activity value, median","[4]; 25 mg BID, Day 1 4 h, N=254",100.0%
same,"FXI Clotting Activity percent change from baseline, mean","[4]; 25 mg BID, Day 1 12 h, N=241",−6.89%
same,"FXI Clotting Activity percent change from baseline, median","[4]; 25 mg BID, Day 1 12 h, N=241",−7.63%
same,"FXI Clotting Activity percent change from baseline, mean","[4]; 25 mg BID, Day 1 24 h, N=253",−9.69%
same,"FXI Clotting Activity percent change from baseline, median","[4]; 25 mg BID, Day 1 24 h, N=253",−11.30%
same,"FXI Clotting Activity percent change from baseline, mean",[4]; [10],−18.1%
same,"FXI Clotting Activity percent change from baseline, median",[4]; [10],−19.10%
same,"FXI Clotting Activity percent change from baseline, mean",[4]; [11],−17.7%
same,"FXI Clotting Activity percent change from baseline, median",[4]; [11],−20.16%
same,dose-response of Factor XI clotting activity,[4]; milvexian treated groups,dose-dependent decreases in the Factor XI clotting activity
same,early treatment discontinuation rate,[5],31.60%
same,steady state mean (std) Cmax,[6],346 (129) ng/mL
same,steady state mean (std) AUC0-24,[6]; […],7290 (2940) ng*h/mL
same,upper limits of all 2-sided 90% CIs of time-matched differences vs placebo in changes from baseline in QTcF,[1]; 100 mg,below 10 ms
same,upper limits of 90% CI for ΔΔQTcF at milvexian Tmax,[1]; 100 mg twice daily,below 10 ms
same,upper bound of two-sided CI for largest ΔΔQTc (QTcF),[1]; 100 mg twice daily as capsule,less than 10 milliseconds
same,highest upper limit of 2-sided 90% CI for ΔΔQTcF,[1]; 100 mg,5.16 ms
same,upper limits of all 2-sided 90% CIs of time-matched differences vs placebo in changes from baseline in QTcF,[1]; 200 mg,below 10 ms
same,upper limits of 90% CI for ΔΔQTcF at milvexian Tmax,[1]; 200 mg twice daily,below 10 ms
same,upper bound of two-sided CI for largest ΔΔQTc (QTcF),[1]; 200 mg twice daily as solution,less than 10 milliseconds
same,highest upper limit of 2-sided 90% CI for ΔΔQTcF,[1]; 200 mg,4.57 ms
same,"effect on QT interval (QTcF), ICH E14",[1]; 100 and 200 mg,no effect of clinical or regulatory concern on the QT interval
same,"effect on QT interval (study-specific and Bazett's correction), ICH E14",[1]; 100 and 200 mg,no effect of clinical or regulatory concern on the QT interval
same,QTc interval prolongation,[1]; [12],no clinically significant QTc interval prolongation
same,ΔΔQTc,[1]; [12],less than 10 msec
same,"evidence of QT/QTc interval prolongation, ICH E14",[1]; therapeutic (100 mg) and supratherapeutic (200 mg),does not show evidence of QT/QTc interval prolongation of clinical or regulatory concern
same,ECG abnormalities reported as TEAE,[1]; whole study,No ECG abnormalities were reported as TEAE
same,"HR, RR interval, PR interval, QRS width",[1]; whole study,"No consistent or clinically relevant changes over time were observed in HR, RR interval, PR interval, or QRS width"
same,treatment-emergent QTcF or QTcB values >480 ms or changes >60 ms,[1]; whole study,No treatment-emergent actual values of QTcF or QTcB>480 ms or changes from baseline >60 ms were observed
same,treatment-emergent actual values of QTc>480 ms,[1]; whole study,No treatment-emergent actual values of QTc>480 ms were observed
same,treatment-emergent changes from baseline of QTcF or QTcP>60 ms,[1]; whole study,No treatment-emergent changes from baseline of QTcF or QTcP>60 ms were observed
same,efficacy compared with enoxaparin,[7],comparable efficacy to enoxaparin
same,safety profile compared with enoxaparin,[7],favorable safety profile
same,safety and tolerability,[8]; administration according to the disclosure,generally safe and well tolerated
same,mean vital signs,[8]; whole study,no consistent or clinically relevant changes over time in mean vital signs
CC(=O)Oc1ccccc1C(=O)O [aspirin],chronic clopidogrel vs aspirin monotherapy,[3],comparable results
same,risk and severity of recurrent MACE,"[3]; pooled randomized trials vs control, secondary prevention of ACS or chronic CAD",reduces the risk and severity of early and late recurrent MACE
